# Measurements published in patent US20070049593A1 (priority 2004, published 2007).
# Counter-ions that a name gives are not always drawn.
# Molecular target: T1, HCV polymerase (Hepatitis C virus genotype 1b, UniProt P26663)
# T1 construct: a region encoding NS5B (J Virol 1991 March, 65(3), 1105-13, 544 amino acids after deletion of 47 amino acids on the C-terminal); 6xHis (C); made in house; host or cells: Escherichia coli
# Assay: biochemical
# Parameters: species or system HCV BK strain
# Summary of the method: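 His-tagged NS5B (BK strain, 47-aa C-terminal deletion, E. coli-expressed) at 0.5 μg/ml copied 5 μg/ml run-off RNA bearing the HCV 3′ UTR with 2 μM UTP plus [3H]UTP, 50 μM ATP/GTP, in pH 7.5 Tris with 5 mM MgCl2, 25 °C, 90 min. TCA-precipitated RNA was counted and IC50 calculated.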
# T1 sequence (P26663 2420-2963): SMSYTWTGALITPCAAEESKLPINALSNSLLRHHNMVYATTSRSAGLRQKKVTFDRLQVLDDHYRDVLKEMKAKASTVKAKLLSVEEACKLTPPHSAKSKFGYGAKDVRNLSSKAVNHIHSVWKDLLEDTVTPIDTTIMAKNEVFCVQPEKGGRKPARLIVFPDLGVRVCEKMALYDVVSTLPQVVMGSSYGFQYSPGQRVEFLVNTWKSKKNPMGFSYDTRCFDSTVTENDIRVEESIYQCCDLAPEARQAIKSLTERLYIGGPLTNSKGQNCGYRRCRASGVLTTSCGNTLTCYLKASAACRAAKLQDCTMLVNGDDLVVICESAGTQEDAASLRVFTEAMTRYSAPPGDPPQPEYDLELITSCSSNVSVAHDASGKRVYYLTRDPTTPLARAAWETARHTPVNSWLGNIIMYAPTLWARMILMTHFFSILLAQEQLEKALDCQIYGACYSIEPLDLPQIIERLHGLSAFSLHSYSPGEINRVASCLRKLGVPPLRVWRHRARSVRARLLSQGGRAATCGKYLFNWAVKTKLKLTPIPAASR
row,SMILES,IC50 [nM]
1,"O=C(O)c1ccc2c(C3CCCCC3)c3n(c2c1)CCN(CCCCN1CCOCC1)c1ccccc1-3 [Example 1-80, 13-cyclohexyl-5-[4-(morpholin-4-yl)butyl]-6,7-dihydro-5H-benzo[5,6][1,4]diazepino[7,1-a]indole-10-carboxylic acid dihydrochloride]",< 100
2,"O=C(O)c1ccc2c(C3CCCCC3)c3n(c2c1)CCN(CC(=O)N1CCN(c2ccccc2)CC1)c1ccccc1-3 [Example 1-81, 13-cyclohexyl-5-[2-oxo-2-(4-phenylpiperazin-1-yl)ethyl]-6,7-dihydro-5H-benzo[5,6][1,4]diazepino[7,1-a]indole-10-carboxylic acid dihydrochloride]",< 100
3,"O=C(O)c1ccc2c(C3CCCCC3)c3n(c2c1)CCN(CCN1CCN(c2ccccc2)CC1)c1ccccc1-3 [Example 1-82, 13-cyclohexyl-5-[2-(4-phenylpiperazin-1-yl)ethyl]-6,7-dihydro-5H-benzo[5,6][1,4]diazepino[7,1-a]indole-10-carboxylic acid trihydrochloride]",< 100
4,"O=C(O)c1ccc2c(C3CCCCC3)c3n(c2c1)CCN(CCN1CCCCCC1)c1ccccc1-3 [Example 1-83, 5-[2-(azepan-1-yl)ethyl]-13-cyclohexyl-6,7-dihydro-5H-benzo[5,6][1,4]diazepino[7,1-a]indole-10-carboxylic acid dihydrochloride]",< 100
5,"CCN1CCN(C(=O)CN2CCn3c(c(C4CCCCC4)c4ccc(C(=O)NC)cc43)-c3ccccc32)CC1 [Example 1-84, 13-cyclohexyl-5-[2-(4-ethylpiperazin-1-yl)-2-oxoethyl]-N-methyl-6,7-dihydro-5H-benzo[5,6][1,4]diazepino[7,1-a]indole-10-carboxamide]",< 100
6,"CCN1CCN(C(=O)CN2CCn3c(c(C4CCCCC4)c4ccc(C(=O)NCCO)cc43)-c3ccccc32)CC1 [Example 1-85, 13-cyclohexyl-5-[2-(4-ethylpiperazin-1-yl)-2-oxoethyl]-N-(2-hydroxyethyl)-6,7-dihydro-5H-benzo[5,6][1,4]diazepino[7,1-a]indole-10-carboxamide]",< 100
7,"CCN1CCN(C(=O)CN2CCn3c(c(C4CCCCC4)c4ccc(C(=O)NC(C)(C)CO)cc43)-c3ccccc32)CC1 [Example 1-86, 13-cyclohexyl-5-[2-(4-ethylpiperazin-1-yl)-2-oxoethyl]-N-(2-hydroxy-1,1-dimethylethyl)-6,7-dihydro-5H-benzo[5,6][1,4]diazepino[7,1-a]indole-10-carboxamide]",100 to 1000
8,"CN(C)C(=O)N1CCN(CCN2CCn3c(c(C4CCCCC4)c4ccc(C(=O)O)cc43)-c3ccccc32)CC1 [Example 1-87, 13-cyclohexyl-5-[2-(4-dimethylcarbamoylpiperazin-1-yl)ethyl]-6,7-dihydro-5H-benzo[5,6][1,4]diazepino[7,1-a]indole-10-carboxylic acid dihydrochloride]",< 100
9,"O=C(O)c1ccc2c(C3CCCCC3)c3n(c2c1)CCN(CCN1CCN(C(=O)c2ccccc2)CC1)c1ccccc1-3 [Example 1-88, 5-[2-(4-benzoylpiperazin-1-yl)ethyl]-13-cyclohexyl-6,7-dihydro-5H-benzo[5,6][1,4]diazepino[7,1-a]indole-10-carboxylic acid dihydrochloride]",< 100
10,"CC(C)(C)OC(=O)N1CCC(CCN2CCn3c(c(C4CCCCC4)c4ccc(C(=O)O)cc43)-c3ccccc32)CC1 [Example 1-89, 5-[2-(1-tert-butoxycarbonylpiperidin-4-yl)ethyl]-13-cyclohexyl-6,7-dihydro-5H-benzo[5,6][1,4]diazepino[7,1-a]indole-10-carboxylic acid]",< 100
11,"O=C(O)c1ccc2c(C3CCCCC3)c3n(c2c1)CCN(CCN1CCCC1=O)c1ccccc1-3 [Example 1-90, 13-cyclohexyl-5-[2-(2-oxopyrrolidin-1-yl)ethyl]-6,7-dihydro-5H-benzo[5,6][1,4]diazepino[7,1-a]indole-10-carboxylic acid monohydrochloride]",< 100
12,"CS(=O)(=O)N1CCN(CCN2CCn3c(c(C4CCCCC4)c4ccc(C(=O)O)cc43)-c3ccccc32)CC1 [Example 1-91, 13-cyclohexyl-5-[2-(4-methanesulfonylpiperazin-1-yl)ethyl]-6,7-dihydro-5H-benzo[5,6][1,4]diazepino[7,1-a]indole-10-carboxylic acid dihydrochloride]",< 100
13,"CC(=O)N1CCC(CCN2CCn3c(c(C4CCCCC4)c4ccc(C(=O)O)cc43)-c3ccccc32)CC1 [Example 1-92, 5-[2-(1-acetylpiperidin-4-yl)ethyl]-13-cyclohexyl-6,7-dihydro-5H-benzo[5,6][1,4]diazepino[7,1-a]indole-10-carboxylic acid monohydrochloride]",< 100
14,"CCN1CCC(CCN2CCn3c(c(C4CCCCC4)c4ccc(C(=O)O)cc43)-c3ccccc32)CC1 [Example 1-93, 13-cyclohexyl-5-[2-(1-ethylpiperidin-4-yl)ethyl]-6,7-dihydro-5H-benzo[5,6][1,4]diazepino[7,1-a]indole-10-carboxylic acid dihydrochloride]",< 100
15,"CS(=O)(=O)N1CCC(CCN2CCn3c(c(C4CCCCC4)c4ccc(C(=O)O)cc43)-c3ccccc32)CC1 [Example 1-94, 13-cyclohexyl-5-[2-(1-methanesulfonylpiperidin-4-yl)ethyl]-6,7-dihydro-5H-benzo[5,6][1,4]diazepino[7,1-a]indole-10-carboxylic acid monohydrochloride]",< 100
16,"CC(C)(C)OC(=O)N1CCN(CCN2CCn3c(c(C4CCCCC4)c4ccc(C(=O)O)cc43)-c3ccccc32)CC1 [Example 1-95, 5-[2-(4-tert-butoxycarbonylpiperazin-1-yl)ethyl]-13-cyclohexyl-6,7-dihydro-5H-benzo[5,6][1,4]diazepino[7,1-a]indole-10-carboxylic acid dihydrochloride]",< 100
17,"CCN1CCN(C(=O)CN2CCn3c(c(C4CCCCC4)c4ccc(-c5nn[nH]n5)cc43)-c3ccccc32)CC1 [Example 1-96, 2-[13-cyclohexyl-10-(2H-tetrazol-5-yl)-6,7-dihydrobenzo[5,6][1,4]diazepino[7,1-a]indol-5-yl]-1-(4-ethylpiperazin-1-yl)ethanone]",< 100
18,"CCOC(=O)N1CCN(CCN2CCn3c(c(C4CCCCC4)c4ccc(C(=O)O)cc43)-c3ccccc32)CC1 [Example 1-97, 13-cyclohexyl-5-[2-(4-ethoxycarbonylpiperazin-1-yl)ethyl]-6,7-dihydro-5H-benzo[5,6][1,4]diazepino[7,1-a]indole-10-carboxylic acid dihydrochloride]",< 100
19,"CC(=O)N1CCN(CCN2CCn3c(c(C4CCCCC4)c4ccc(C(=O)O)cc43)-c3ccccc32)CC1 [Example 1-98, 5-[2-(4-acetylpiperazin-1-yl)ethyl]-13-cyclohexyl-6,7-dihydro-5H-benzo[5,6][1,4]diazepino[7,1-a]indole-10-carboxylic acid dihydrochloride]",< 100
20,"CN(C)CCN1CCn2c(c(C3CCCCC3)c3ccc(C(=O)O)cc32)-c2ccccc21 [Example 1-99, 13-cyclohexyl-5-(2-dimethylaminoethyl)-6,7-dihydro-5H-benzo[5,6][1,4]diazepino[7,1-a]indole-10-carboxylic acid dihydrochloride]",< 100
21,"O=C(O)c1ccc2c(C3CCCCC3)c3n(c2c1)CCNc1cc(OCc2cc(N4CCCC4=O)ccc2N2CCOCC2)ccc1-3 [Example 1-100, 13-cyclohexyl-3-[2-(morpholin-4-yl)-5-(2-oxopyrrolidin-1-yl)benzyloxy]-6,7-dihydro-5H-benzo[5,6][1,4]diazepino[7,1-a]indole-10-carboxylic acid dihydrochloride]",< 100
22,"CS(=O)(=O)c1ccc(N2CCOCC2)c(COc2ccc3c(c2)NCCn2c-3c(C3CCCCC3)c3ccc(C(=O)O)cc32)c1 [Example 1-101, 13-cyclohexyl-3-[5-methanesulfonyl-2-(morpholin-4-yl)benzyloxy]-6,7-dihydro-5H-benzo[5,6][1,4]diazepino[7,1-a]indole-10-carboxylic acid dihydrochloride]",< 100
23,"CCN1CCN(C(=O)CN2CCn3c(c(C4CCCCC4)c4ccc(C(=O)NC(C)=O)cc43)-c3ccccc32)CC1 [Example 1-102, N-acetyl-13-cyclohexyl-5-[2-(4-ethylpiperazin-1-yl)-2-oxoethyl]-6,7-dihydro-5H-benzo[5,6][1,4]diazepino[7,1-a]indole-10-carboxamide]",< 100
24,"CN1CCn2c(c(C3CCCCC3)c3ccc(C(=O)O)cc32)-c2ccc(OCc3cc(S(C)(=O)=O)ccc3N3CCOCC3)cc21 [Example 1-103, 13-cyclohexyl-3-[5-methanesulfonyl-2-(morpholin-4-yl)benzyloxy]-5-methyl-6,7-dihydro-5H-benzo[5,6][1,4]diazepino[7,1-a]indole-10-carboxylic acid dihydrochloride]",< 100
25,"COC(=O)N1CCN(CCN2CCn3c(c(C4CCCCC4)c4ccc(C(=O)O)cc43)-c3ccccc32)CC1 [Example 1-104, 13-cyclohexyl-5-[2-(4-methoxycarbonylpiperazin-1-yl)ethyl]-6,7-dihydro-5H-benzo[5,6][1,4]diazepino[7,1-a]indole-10-carboxylic acid dihydrochloride]",< 100
26,"O=C(O)c1ccc2c(C3CCCCC3)c3n(c2c1)CCN(CCCOC1CCCCO1)c1ccccc1-3 (stereo not drawn) [Example 1-105, 13-cyclohexyl-5-[3-(tetrahydropyran-2-yloxy)propyl]-6,7-dihydro-5H-benzo[5,6][1,4]diazepino[7,1-a]indole-10-carboxylic acid]",< 100
27,"O=C(O)c1ccc2c(C3CCCCC3)c3n(c2c1)CCN(CC(=O)N1CCCC(O)C1)c1ccccc1-3 (stereo not drawn) [Example 1-106, 13-cyclohexyl-5-[2-(3-hydroxypiperidin-1-yl)-2-oxoethyl]-6,7-dihydro-5H-benzo[5,6][1,4]diazepino[7,1-a]indole-10-carboxylic acid monohydrochloride]",< 100
